Patent US9731001B2, “Three-dimensional cavities of dendritic cell immunoreceptor (DCIR), compounds binding thereto and therapeutic applications related to inhibition of human immunodeficiency virus type-1 (HIV-1)” (priority 2011, dated 2017)
“Also recorded” adds a separate entry of the source.

Experiments:
Assay type in all cases: cell-based
[1] = molecular target: T1, DCIR (Homo sapiens, UniProt Q9UMR7); assay: HIV-1 binding/entry assay on Raji-CD4-DCIR cells (cell-associated p24); settings: 10 μM pre-treatment 10 min; NL4-3 60 min; p24 content
T1 construct: expressed in transfected cells; host or cells: Raji-CD4 (human B cell line stably expressing human CD4), retroviral transduction
T1 sequence (Q9UMR7 1-237): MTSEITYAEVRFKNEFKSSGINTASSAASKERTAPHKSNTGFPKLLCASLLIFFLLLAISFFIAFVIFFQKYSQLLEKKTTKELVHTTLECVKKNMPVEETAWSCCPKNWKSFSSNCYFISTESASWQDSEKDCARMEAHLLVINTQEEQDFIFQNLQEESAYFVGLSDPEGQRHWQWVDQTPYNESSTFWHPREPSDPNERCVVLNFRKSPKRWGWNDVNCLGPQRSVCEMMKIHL
Protocol: FIG. 4 is a bar graph showing that inhibitors decrease HIV-1 binding on DCIR. Raji-CD4-DCIR cells were treated with 10 μM of four site A inhibitors (A1, A2, A3 and A4) and three site B inhibitors (B1, B2 and B3) (or with vehicle (DMSO) only) for 10 min at 37° C. Thereafter, cells were pulsed with NL4-3 for 60 min. After three washes with PBS to remove unadsorbed virus, the abundance of cell-associated viruses was quantified by measuring p24 content. Data shown correspond to the means±SEM of three independent experiments performed with triplicate samples. The asterisk (*) denotes statistically significant data (*, P<0.05, ** P<0.01, *** P<0.001).
(§1) Where indicated, 1×10^6 parental Raji-CD4 cells (DCIR-negative), Raji-CD4-DCIR or Raji-DC-SIGN transfectants were pre-treated with the indicated amount of a chemical inhibitor for 10 min. Cells were then pulsed with NL4-3 (an equivalent of 100 ng of p24) for 60 min at 37° C. The virus-cell mixture was then washed three times with PBS to remove unbound virus and re-suspended in PBS containing 1% BSA. Binding/entry was then determined by the p24 content by ELISA as above. For the infection assay, Raji-CD4 and Raji-CD4-DCIR (1×10^6 cells) were exposed to NL4-3 viral stock (100 ng of p24) for 2 h at 37° C. After three washes with PBS to remove excess virus, cells were maintained in culture for up to 9 days. Cell-free culture supernatants were collected at the indicated time points and assayed for p24 content.

[2] = system: HIV-1 (NL4-3); assay: HIV-1 infection assay on Raji-CD4 and Raji-CD4-DCIR cells (p24 in supernatant); settings: Raji-CD4 vs Raji-CD4-DCIR, NL4-3 2 h, culture 3 d
Protocol: FIG. 5 is a bar graph showing that specific inhibitors against the site A (A1, A4) and site B (B1, B2) decrease infectivity of Raji-CD4-DCIR. Raji-CD4 and Raji-CD4-DCIR were treated with the inhibitors selected following experiments described in FIG. 4, or DMSO. Cells were then exposed to NL4-3 for 2 h, rinsed and maintained in culture for 3d. Cell-free culture supernatants were collected and assayed for p24 content. Data shown correspond to the means±SEM from 3 independent experiments performed with triplicate samples. The asterisk (*) denotes statistically significant data (*, P<0.05, ** P<0.01, *** P<0.001).
as §1

[3] = molecular target: T2, DC-SIGN (Homo sapiens, UniProt Q9NNX6); assay: HIV-1 binding to Raji-DC-SIGN cells (p24); settings: NL4-3 60 min
T2 construct: expressed in transfected cells; host or cells: Raji cells stably transfected with a DC-SIGN plasmid
T2 sequence (Q9NNX6 1-404): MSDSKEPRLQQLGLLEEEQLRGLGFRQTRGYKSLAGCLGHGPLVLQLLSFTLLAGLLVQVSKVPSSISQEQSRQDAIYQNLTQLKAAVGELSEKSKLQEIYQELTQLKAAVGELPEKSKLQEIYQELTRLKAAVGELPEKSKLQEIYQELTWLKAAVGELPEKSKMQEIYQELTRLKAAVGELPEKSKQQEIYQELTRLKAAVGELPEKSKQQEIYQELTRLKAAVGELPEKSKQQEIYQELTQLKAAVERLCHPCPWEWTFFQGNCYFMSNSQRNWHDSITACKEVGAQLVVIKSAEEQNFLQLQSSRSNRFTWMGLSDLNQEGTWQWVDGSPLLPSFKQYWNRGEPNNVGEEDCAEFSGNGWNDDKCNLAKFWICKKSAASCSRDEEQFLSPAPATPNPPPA
Protocol: Raji-DC-SIGN cells were treated for 10 min at 37° C. with inhibitors A1 and A4 directed against the site A and B1 and B2 directed against the site B, or with DMSO. Afterwards, cells were pulsed with NL4-3 for 60 min, rinsed thrice with PBS were made to remove unadsorbed virus, and cell-associated viruses were quantified by measuring p24 content. Data shown correspond to the means±SEM of 3 independent experiments performed in triplicate.
as §1

[4] = system: HIV-1 (NL4-3/Balenv); assay: HIV-1 binding assay on iMDDCs (p24); settings: IM-MDDCs, 10 μM pre-incubation 10 min, NL4-3balenv 60 min
Protocol: (§2) FIG. 7 is bar graphs showing that selected site A and site B inhibitors decrease HIV-1 binding and infection of IM-MDDCs. Upper panel: IM-MDDCs were treated with two chemical inhibitors directed against site A (A1 and A4) and two inhibitors directed against site B (B1 and B2) (or DMSO) for 10 min at 37° C. Next, cells were pulsed with NL4-3balenv for 60 min at 37° C. and rinsed extensively before measuring p24 content. Lower panel: In some experiments, similarly treated IM-MDDCs were pulsed with NL4-3balenv for 2 h at 37° C., rinsed extensively, and maintained in complete culture medium supplemented with GM-CSF and IL-4 for up to 9 days with medium replenishment every 3 days. Cell-free culture supernatants were quantified by measuring p24 content. Data shown correspond to the means±SEM of 3 independent experiments performed in triplicate. The asterisks denotes statistically significant data (*, P<0.05; **, P<0.01; ***, P<0.001).
(§3) For assessing binding/entry, iMDDCs (3×10^5 cells in a final volume of 300 μl) were pre-treated with 10 μM of different chemical inhibitors for 10 min and exposed to NL4-3/Balenv (30 ng of p24) for 60 min at 37° C. After three washes with PBS, cells were re-suspended in PBS containing 1% BSA. The p24 content was determined by ELISA, while susceptibility of iMDDCs to HIV-1 infection was assessed by initially exposing 3×10^5 cells to NL4-3/Balenv (30 ng) at 37° C. for 2 h. After three washes with PBS, cells were maintained in complete RPMI 1640 supplemented with GM-CSF and IL-4 in 96-well plates, in a final volume of 200 μl. Every 3 days and for a 9-day period, half of the conditioned medium was collected and kept at −20° C. until assayed. Virus production was estimated as above by measuring p24 levels by ELISA.

[5] = system: HIV-1 (NL4-3/Balenv); assay: HIV-1 infection assay on iMDDCs (p24 in supernatant); settings: IM-MDDCs, NL4-3balenv 2 h, culture up to 9 days
Protocol: as §2, §3

Cc1ccc(/N=[N+](\[O-])c2ccc(C)cc2)cc1 [Compound B2, 1-methyl-4-[(4-methylphenyl)-NNO-azoxy]benzene]
HIV-1 attachment to Raji-CD4-DCIR cells [1]: statistically significant decrease
HIV-1 production [2]: decreased HIV-1 production only in DCIR-expressing cells
HIV-1 binding to DC-SIGN [3]: do not block HIV-1 attachment to DC-SIGN
HIV-1 binding to DCs [4]: decreased significantly
productive infection of DCs [5]: blocked productive infection

O=C(/C=C/C=C/c1ccccc1)c1ccccc1 [Compound A1, 1,5-diphenyl-2,4-pentadien-1-one]
HIV-1 attachment to Raji-CD4-DCIR cells [1]: statistically significant decrease; also recorded: proved active against HIV-1 binding
HIV-1 production [2]: decreased HIV-1 production only in DCIR-expressing cells
HIV-1 binding to DC-SIGN [3]: do not block HIV-1 attachment to DC-SIGN
HIV-1 binding to DCs [4]: decreased significantly
productive infection of DCs [5]: blocked productive infection

O=C(c1ccccc1)c1cc2ccccc2o1 [Compound B1, 1-benzofuran-2-yl(phenyl)methanone]
HIV-1 attachment to Raji-CD4-DCIR cells [1]: statistically significant decrease; also recorded: proved active against HIV-1 binding
HIV-1 production [2]: decreased HIV-1 production only in DCIR-expressing cells
HIV-1 binding to DC-SIGN [3]: do not block HIV-1 attachment to DC-SIGN
HIV-1 binding to DCs [4]: decreased significantly
productive infection of DCs [5]: blocked productive infection
